These results are taken from patent publication US20210038607A1, “OXADIAZOLYLTHIOPHENE DERIVATIVES USEFUL AS HISTONE DEACETYLASE INHIBITORS” (Karus Therapeutics Limited, priority 2018, published 2021).

Assay [1] addresses T1, Human HDAC9 (Homo sapiens, UniProt Q9UKV0).
T1 construct: amino acids 604-1066 with C-terminal His tag; His (C); host or cells: baculovirus expression system
Nature of the assay: HDAC9 biochemical assay, class IIa-specific substrate. The settings on record: read-out: HDAC Isoform IC50 (nM) 9. Put shortly:
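HDAC9 residues 604-1066 (C-terminal His tag, baculovirus-expressed) at 0.06 ng/ul with 50 μM class IIa substrate Boc-Lys(trifluoroacetyl)-AMC in Tris-HCl pH 8.0 buffer with BSA and 1% DMSO. 30 min at room temperature, then developer added; fluorescence read at 360/460 nm Ex/Em.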

The target in assay [2] is T2, Human HDAC4 (Homo sapiens, UniProt P56524).
T2 construct: amino acids 627-1085 with N-terminal GST tag; GST (N); host or cells: baculovirus expression system
T2 sequence (P56524 627-1084 limits assumed): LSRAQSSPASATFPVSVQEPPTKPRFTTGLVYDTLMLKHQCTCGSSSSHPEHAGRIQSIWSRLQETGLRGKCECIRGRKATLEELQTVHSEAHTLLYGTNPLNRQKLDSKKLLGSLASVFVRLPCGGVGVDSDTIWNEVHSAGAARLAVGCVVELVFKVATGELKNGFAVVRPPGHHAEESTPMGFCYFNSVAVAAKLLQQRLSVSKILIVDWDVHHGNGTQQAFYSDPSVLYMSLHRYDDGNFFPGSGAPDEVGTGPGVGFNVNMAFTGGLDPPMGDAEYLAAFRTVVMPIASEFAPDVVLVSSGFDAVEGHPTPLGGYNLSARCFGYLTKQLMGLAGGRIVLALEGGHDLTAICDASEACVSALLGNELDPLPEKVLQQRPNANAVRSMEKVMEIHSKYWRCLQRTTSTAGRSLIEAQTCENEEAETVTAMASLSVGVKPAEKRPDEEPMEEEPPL
Kind of assay: HDAC4 biochemical assay, class IIa-specific substrate. The following applies: read-out: HDAC Isoform IC50 (nM) 4. The gist of the method: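 Two-step fluorogenic read-out: deacetylated BOC-Lys(trifluoroacetyl)-AMC (50 μM) was digested by developer and measured at Ex/Em 360/460. Deacetylation by 0.004 ng/ul HDAC4 (aa 627-1085, N-terminal GST) ran 30 min at room temperature, pH 8.0 Tris buffer, 1 mg/mL BSA, 1% DMSO.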

For assay [3], the target named is T3, Recombinant human HDAC6 (Homo sapiens, UniProt Q9UBN7).
T3 construct: full length, MW=159 kDa; GST (N); host or cells: Sf9 insect cells (baculovirus)
T3 sequence (Q9UBN7 1-1215): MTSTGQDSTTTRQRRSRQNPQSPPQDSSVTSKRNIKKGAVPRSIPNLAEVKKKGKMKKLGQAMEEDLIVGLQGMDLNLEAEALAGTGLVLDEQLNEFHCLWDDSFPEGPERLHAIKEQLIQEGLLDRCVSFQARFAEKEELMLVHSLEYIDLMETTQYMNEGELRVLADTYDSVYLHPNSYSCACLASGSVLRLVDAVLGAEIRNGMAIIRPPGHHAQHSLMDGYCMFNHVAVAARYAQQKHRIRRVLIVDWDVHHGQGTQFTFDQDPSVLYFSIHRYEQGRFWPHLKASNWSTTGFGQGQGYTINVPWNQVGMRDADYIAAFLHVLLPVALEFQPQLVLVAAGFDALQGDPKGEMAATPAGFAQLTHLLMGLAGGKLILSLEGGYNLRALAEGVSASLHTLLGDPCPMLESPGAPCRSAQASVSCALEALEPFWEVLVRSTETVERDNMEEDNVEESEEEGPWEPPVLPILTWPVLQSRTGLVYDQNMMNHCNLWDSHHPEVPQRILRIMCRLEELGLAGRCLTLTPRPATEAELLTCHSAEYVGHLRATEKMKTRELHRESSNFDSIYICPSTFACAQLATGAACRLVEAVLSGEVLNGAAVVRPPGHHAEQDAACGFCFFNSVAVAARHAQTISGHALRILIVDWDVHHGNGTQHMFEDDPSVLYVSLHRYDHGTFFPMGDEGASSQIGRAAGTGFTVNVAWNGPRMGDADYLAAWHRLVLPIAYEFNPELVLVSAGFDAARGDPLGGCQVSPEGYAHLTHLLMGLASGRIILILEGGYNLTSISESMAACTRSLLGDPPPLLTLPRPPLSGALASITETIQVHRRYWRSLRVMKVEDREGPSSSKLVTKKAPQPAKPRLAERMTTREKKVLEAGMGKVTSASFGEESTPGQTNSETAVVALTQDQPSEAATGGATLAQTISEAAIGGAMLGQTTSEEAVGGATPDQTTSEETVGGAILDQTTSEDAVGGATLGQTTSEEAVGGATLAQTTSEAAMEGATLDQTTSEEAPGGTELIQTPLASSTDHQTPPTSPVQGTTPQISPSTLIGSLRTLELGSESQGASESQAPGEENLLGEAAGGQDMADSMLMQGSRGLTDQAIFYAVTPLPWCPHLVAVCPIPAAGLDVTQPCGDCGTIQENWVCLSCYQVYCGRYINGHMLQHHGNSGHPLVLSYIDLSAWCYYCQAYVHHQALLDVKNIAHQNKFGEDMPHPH
Kind of assay: HDAC6 biochemical assay, AMC-labeled peptide substrate. The settings on record: HDAC6; read-out: HDAC Isoform IC50 (nM) 6. The gist of the method: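 Two-step fluorogenic read-out: enzyme deacetylates 50 μM RHKK(Ac)AMC for 1 h at 30° C in pH 8.0 Tris buffer with BSA and 1% DMSO, then developer cleavage gives signal at Ex 360/Em 460. Enzyme: 0.3 ng/ul recombinant full-length human HDAC6, GST-tagged, Sf9-expressed.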

The target of assay [4] is T4, Complex of human HDAC3 and human NCOR2 (Homo sapiens, UniProt O15379).
T4 construct: full length with C-terminal His tag, MW=49.7 kDa; His (C); host or cells: baculovirus expression system (co-expressed)
T4 sequence (O15379 whole entry): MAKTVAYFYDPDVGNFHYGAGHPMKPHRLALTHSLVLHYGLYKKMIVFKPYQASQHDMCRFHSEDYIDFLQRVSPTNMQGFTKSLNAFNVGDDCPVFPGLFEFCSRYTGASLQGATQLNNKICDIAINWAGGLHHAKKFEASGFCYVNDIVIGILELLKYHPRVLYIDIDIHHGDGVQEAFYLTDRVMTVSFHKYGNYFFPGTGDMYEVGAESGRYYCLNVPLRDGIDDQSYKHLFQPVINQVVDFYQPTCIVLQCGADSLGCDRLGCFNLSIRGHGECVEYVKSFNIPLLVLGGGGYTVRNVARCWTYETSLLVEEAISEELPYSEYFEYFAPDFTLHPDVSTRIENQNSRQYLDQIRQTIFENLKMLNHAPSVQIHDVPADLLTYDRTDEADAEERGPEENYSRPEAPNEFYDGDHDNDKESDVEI
T4 sequence (Q9Y618 395-489 partner limits assumed): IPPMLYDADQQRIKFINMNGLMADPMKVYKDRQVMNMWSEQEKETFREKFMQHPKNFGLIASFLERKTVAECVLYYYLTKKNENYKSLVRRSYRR
Nature of the assay: HDAC3 biochemical assay, AMC-labeled peptide substrate. The settings on record: read-out: HDAC Isoform IC50 (nM) 3. The protocol:
Activity against all zinc-dependent HDACs 1 to 11 was assessed by using an acetylated AMC-labeled peptide substrate. The substrate RHKK(Ac)AMC was used for HDAC1, HDAC2, HDAC3, HDAC6 and HDAC10; the substrate used for HDAC8 was RHK(Ac)K(Ac)AMC. Activity against the class IIa HDACs (HDAC4, 5, 7, 9) and HDAC11 was determined using a class IIa-specific substrate, BOC-Lys(trifluoroacetyl)-AMC (“Trifluoroacetyl Lysine”; see Lahm et al, 2007, PNAS, 104, 17335-17340). All assays were based on the AMC-labeled substrate and developer combination.
The protocol involved a two-step reaction: first, the substrate with the acetylated lysine side chain is incubated with a sample containing HDAC activity, to produce the deacetylated products, which are then digested in the second step by the addition of developer to produce the fluorescent signal proportional to the amount of deacetylated substrates.
Complex of human HDAC3 (GenBank Accession No. NM_003883), full length with C-terminal His tag, MW=49.7 kDa, and human NCOR2 (amino acid 395-489) (GenBank Accession No. NM_006312), N-terminal GST tag, MW=37.6 kDa, co-expressed in baculovirus expression system.
Assay Buffer: 50 mM Tris-HCl, pH8.0, 137 mM NaCl, 2.7 mM KCl, 1 mM MgC2. Before use, 1 mg/mL BSA and DMSO are added.
HDAC3: 0.1 ng/ul HDAC3 and 50 μM HDAC substrate are in the reaction buffer with 1% DMSO final. Incubate for 1 hour at 30° C.
Stage 1: Deacetylation of substrate by incubation of HDAC enzymes with compounds
Stage 2: Development by addition of Developer to digest the deacetylated substrate, and generate the fluorescent colour; Detection: 360/460 Ex/Em

T1 sequence (Q9UKV0 604-1066 isoform Q9UKV0-5): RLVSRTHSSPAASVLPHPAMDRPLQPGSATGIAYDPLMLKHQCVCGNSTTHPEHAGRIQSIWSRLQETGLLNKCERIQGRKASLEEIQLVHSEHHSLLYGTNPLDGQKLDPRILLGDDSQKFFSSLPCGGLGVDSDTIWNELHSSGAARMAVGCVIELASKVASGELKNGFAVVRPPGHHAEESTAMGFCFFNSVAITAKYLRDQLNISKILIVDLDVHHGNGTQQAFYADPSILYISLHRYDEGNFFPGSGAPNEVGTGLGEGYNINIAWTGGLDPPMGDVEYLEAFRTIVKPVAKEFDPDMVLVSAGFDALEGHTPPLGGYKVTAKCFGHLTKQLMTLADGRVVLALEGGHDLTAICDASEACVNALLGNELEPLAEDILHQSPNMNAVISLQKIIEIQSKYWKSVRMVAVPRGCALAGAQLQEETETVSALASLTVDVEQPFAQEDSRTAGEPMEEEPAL

With `Fc1ccnc(N(Cc2ccc(-c3noc(C(F)(F)F)n3)s2)c2cnccn2)c1` [Example AG, N-(4-Fluoropyridin-2-yl)-N-({5-[5-(trifluoromethyl)-1,2,4-oxadiazol-3-yl]thiophen-2-yl}methyl)pyrazin-2-amine], the IC50 in assay [1] was ≤ 10000 nM; in assay [2], ≤ 10000 nM; in assay [3] it was ≤ 500 nM; in assay [4], > 10000 nM.

Take `FC(F)(F)c1nc(-c2ccc(CN(c3cnccn3)c3ncccn3)s2)no1` [Example AS, N-(Pyrimidin-2-yl)-N-({5-[5-(trifluoromethyl)-1,2,4-oxadiazol-3-yl]thiophen-2-yl}methyl)pyrazin-2-amine]: the IC50 in assay [1] is ≤ 10000 nM; in assay [2] it was ≤ 10000 nM; in assay [3] it was ≤ 1000 nM; in assay [4] it was > 10000 nM.

As to `FC(F)(F)c1nc(-c2ccc(CN(c3cnccn3)c3cnccn3)s2)no1` [Example BA, N-(Pyrazin-2-yl)-N-({5-[5-(trifluoromethyl)-1,2,4-oxadiazol-3-yl]thiophen-2-yl}methyl)pyrazin-2-amine], the IC50 was ≤ 10000 nM in assay [1], ≤ 1000 nM in assay [2], ≤ 500 nM in assay [3] and > 10000 nM in assay [4].

With `Cc1nccnc1N(Cc1ccc(-c2noc(C(F)(F)F)n2)s1)c1cnccn1` [Example BE, 3-Methyl-N-(pyrazin-2-yl)-N-({5-[5-(trifluoromethyl)-1,2,4-oxadiazol-3-yl]thiophen-2-yl}methyl)pyrazin-2-amine], the IC50 in assay [1] is ≤ 1000 nM; in assay [2], ≤ 500 nM; in assay [3], ≤ 500 nM; in assay [4] it was > 10000 nM.

For the molecule `COc1nccnc1N(Cc1ccc(-c2noc(C(F)(F)F)n2)s1)c1cnccn1` [Example BF, 3-Methoxy-N-(pyrazin-2-yl)-N-({5-[5-(trifluoromethyl)-1,2,4-oxadiazol-3-yl]thiophen-2-yl}methyl)pyrazin-2-amine], the IC50 is ≤ 10000 nM in assay [1], ≤ 10000 nM in assay [2], ≤ 10000 nM in assay [3] and > 10000 nM in assay [4].

Take `Cc1cnc(N(Cc2ccc(-c3noc(C(F)(F)F)n3)s2)c2cnccn2)cn1` [Example BH, 5-Methyl-N-(pyrazin-2-yl)-N-({5-[5-(trifluoromethyl)-1,2,4-oxadiazol-3-yl]thiophen-2-yl}methyl)pyrazin-2-amine]: the IC50 is ≤ 10000 nM in assay [1], ≤ 1000 nM in assay [2], ≤ 500 nM in assay [3] and > 10000 nM in assay [4].

`COc1cnc(N(Cc2ccc(-c3noc(C(F)(F)F)n3)s2)c2cnccn2)cn1` [Example BI, 5-Methoxy-N-(pyrazin-2-yl)-N-({5-[5-(trifluoromethyl)-1,2,4-oxadiazol-3-yl]thiophen-2-yl}methyl)pyrazin-2-amine]: the IC50 is ≤ 10000 nM in assay [1], ≤ 10000 nM in assay [2], ≤ 1000 nM in assay [3] and > 10000 nM in assay [4].

Regarding `FC(F)(F)c1cnc(N(Cc2ccc(-c3noc(C(F)(F)F)n3)s2)c2cnccn2)cn1` [Example BK, N-(Pyrazin-2-yl)-5-(trifluoromethyl)-N-({5-[5-(trifluoromethyl)-1,2,4-oxadiazol-3-yl]thiophen-2-yl}methyl)pyrazin-2-amine], the IC50 was ≤ 10000 nM in assay [1], ≤ 10000 nM in assay [2], ≤ 10000 nM in assay [3] and > 10000 nM in assay [4].

Take `FC(F)(F)c1nc(-c2ccc(CN(c3cnccn3)c3cnc(N4CCOCC4)cn3)s2)no1` [Example BM, 5-(Morpholin-4-yl)-N-(pyrazin-2-yl)-N-({5-[5-(trifluoromethyl)-1,2,4-oxadiazol-3-yl]thiophen-2-yl}methyl)pyrazin-2-amine]: the half-maximal inhibitory concentration (IC50) in assay [1] is ≤ 10000 nM; in assay [2] it was ≤ 1000 nM; in assay [3], ≤ 10000 nM; in assay [4], ≤ 10000 nM.

Take `Cc1cncc(N(Cc2ccc(-c3noc(C(F)(F)F)n3)s2)c2cnccn2)n1` [Example BP, 6-Methyl-N-(pyrazin-2-yl)-N-({5-[5-(trifluoromethyl)-1,2,4-oxadiazol-3-yl]thiophen-2-yl}methyl)pyrazin-2-amine]: the IC50 in assay [1] is ≤ 10000 nM; in assay [2], ≤ 1000 nM; in assay [3] it was ≤ 500 nM; in assay [4] it was > 10000 nM.

Regarding `COc1cncc(N(Cc2ccc(-c3noc(C(F)(F)F)n3)s2)c2cc(C(F)(F)F)cnn2)n1` [Example EN, N-(6-Methoxypyrazin-2-yl)-5-(trifluoromethyl)-N-({5-[5-(trifluoromethyl)-1,2,4-oxadiazol-3-yl]thiophen-2-yl}methyl)pyridazin-3-amine], the IC50 is > 10000 nM in assay [1], ≤ 10000 nM in assay [2] and ≤ 500 nM in assay [3].

Take `FC(F)(F)c1cnnc(N(Cc2ccc(-c3noc(C(F)(F)F)n3)s2)c2cccnn2)c1` [Example ER, N-(Pyridazin-3-yl)-5-(trifluoromethyl)-N-({5-[5-(trifluoromethyl)-1,2,4-oxadiazol-3-yl]thiophen-2-yl}methyl)pyridazin-3-amine]: the half-maximal inhibitory concentration (IC50) in assay [1] is ≤ 10000 nM; in assay [2], ≤ 10000 nM; in assay [3] it was ≤ 500 nM.

For `FC(F)(F)c1cnnc(N(Cc2ccc(-c3noc(C(F)(F)F)n3)s2)c2cc(C(F)(F)F)cnn2)c1` [Example EU, 5-(Trifluoromethyl)-N-({5-[5-(trifluoromethyl)-1,2,4-oxadiazol-3-yl]thiophen-2-yl}methyl)-N-[5-(trifluoromethyl)pyridazin-3-yl]pyridazin-3-amine], the IC50 in assay [1] is > 10000 nM; in assay [2] it was ≤ 10000 nM; in assay [3], ≤ 500 nM.
